According to paper PMC5002989 (Bioorganic & medicinal chemistry letters, 2016):
Read-outs that look alike come from different tables or passages of the source.

Key:
[1] = Experimental water solubility, thermodynamic solubility method; format: physicochemical; conditions: for solubility: water, Experimentally determined water solubility of the hydrochloride salt
[2] = target: hERG channel (Homo sapiens, UniProt Q12809); test: biochemical
[3] = target: VMAT2 (Rattus norvegicus, UniProt Q01827); test: [3H]DA uptake at VMAT2 in rat striatal vesicle preparations; format: biochemical
Sequence of VMAT2 (Q01827 whole entry): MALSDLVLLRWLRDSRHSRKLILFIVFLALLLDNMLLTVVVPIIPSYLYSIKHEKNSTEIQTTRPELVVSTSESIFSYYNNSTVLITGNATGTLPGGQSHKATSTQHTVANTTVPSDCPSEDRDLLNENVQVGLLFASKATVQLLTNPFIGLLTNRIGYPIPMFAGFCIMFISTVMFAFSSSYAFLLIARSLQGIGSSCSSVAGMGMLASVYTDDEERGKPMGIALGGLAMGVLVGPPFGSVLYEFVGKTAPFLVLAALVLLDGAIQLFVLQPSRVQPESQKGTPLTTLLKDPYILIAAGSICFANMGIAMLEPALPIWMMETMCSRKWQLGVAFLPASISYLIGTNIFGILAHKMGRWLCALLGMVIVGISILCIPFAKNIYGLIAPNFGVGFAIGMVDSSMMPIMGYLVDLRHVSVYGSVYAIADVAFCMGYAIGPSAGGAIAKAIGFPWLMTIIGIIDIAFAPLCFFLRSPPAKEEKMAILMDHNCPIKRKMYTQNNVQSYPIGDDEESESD

Sequence of hERG channel (Q12809 whole entry): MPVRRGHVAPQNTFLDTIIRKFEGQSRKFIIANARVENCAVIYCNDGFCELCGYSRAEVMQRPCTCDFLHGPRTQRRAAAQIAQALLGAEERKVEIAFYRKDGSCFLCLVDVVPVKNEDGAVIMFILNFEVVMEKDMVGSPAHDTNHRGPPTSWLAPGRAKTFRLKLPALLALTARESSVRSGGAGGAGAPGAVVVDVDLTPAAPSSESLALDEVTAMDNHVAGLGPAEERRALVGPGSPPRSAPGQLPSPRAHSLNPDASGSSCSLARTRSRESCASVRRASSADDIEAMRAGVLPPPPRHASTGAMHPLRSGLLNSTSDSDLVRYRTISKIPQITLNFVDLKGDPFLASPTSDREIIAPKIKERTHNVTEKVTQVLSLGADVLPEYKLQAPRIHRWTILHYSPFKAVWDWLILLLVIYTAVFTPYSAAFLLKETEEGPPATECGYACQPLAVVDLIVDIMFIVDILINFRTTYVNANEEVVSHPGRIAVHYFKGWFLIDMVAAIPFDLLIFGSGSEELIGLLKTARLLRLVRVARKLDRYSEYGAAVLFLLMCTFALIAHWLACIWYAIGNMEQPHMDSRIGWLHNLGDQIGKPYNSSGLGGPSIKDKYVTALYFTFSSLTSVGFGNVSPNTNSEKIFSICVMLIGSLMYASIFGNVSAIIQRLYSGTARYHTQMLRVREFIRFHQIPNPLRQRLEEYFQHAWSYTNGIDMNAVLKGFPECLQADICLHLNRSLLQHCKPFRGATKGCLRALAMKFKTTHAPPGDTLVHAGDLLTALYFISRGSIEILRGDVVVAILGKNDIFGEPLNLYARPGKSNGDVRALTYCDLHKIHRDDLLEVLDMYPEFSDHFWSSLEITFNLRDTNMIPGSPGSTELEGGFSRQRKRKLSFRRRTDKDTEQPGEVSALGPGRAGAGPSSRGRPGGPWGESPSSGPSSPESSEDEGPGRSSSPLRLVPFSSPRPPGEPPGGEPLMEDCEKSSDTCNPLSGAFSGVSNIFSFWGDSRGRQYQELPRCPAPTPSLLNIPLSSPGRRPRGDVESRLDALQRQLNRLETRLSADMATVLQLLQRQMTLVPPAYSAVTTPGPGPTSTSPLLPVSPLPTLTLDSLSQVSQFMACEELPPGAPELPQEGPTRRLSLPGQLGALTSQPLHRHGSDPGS

## COc1ccccc1CCN1CCN(CCc2ccccc2OC)CC1.Cl.Cl [Compound 6b]
[1]; listed as C00014
  Experimentally determined water solubility of the hydrochloride salt: 25.0 mg/mL
[1]
  solubility: 33.3 mg/mL

## COc1ccccc1CCN1CCN(CCc2ccccc2)CC1.Cl.Cl [Compound 9a]
[1]
  Experimentally determined water solubility of the hydrochloride salt: 13.5 mg/mL
[1]; listed as C00004
  Experimentally determined water solubility of the hydrochloride salt: 33.3 mg/mL

## CN1[C@@H](CCc2ccccc2)CCC[C@H]1CCc1ccccc1 [Lobelane (2), lobelane]
[2]
  Ki: 238 ± 38.9 nM

## Cl.Cl.Fc1ccc(CCN2CCN(CCc3ccc(F)cc3)CC2)cc1 [Compound 6f]
[3]
  [3H]DA uptake Ki in comparison to lobelane: not different from lobelane

## Cl.Cl.Clc1ccccc1CCN1CCN(CCc2ccccc2Cl)CC1 [Compound 6e]
[1]; listed as C00020
  Experimentally determined water solubility of the hydrochloride salt: 13.5 mg/mL
[1]
  solubility: 25 mg/mL
